Results as given in PubChem BioAssay AID1845208 (Molecular Pharmacology Branch, DTP, NCI, 2023).
pIC50: −log10 of the molar value. Where “and” joins values, the source holds several entries; their conditions need not be identical. Equal entries are not always repeated. Blank lines part the entries; values can stand above or below the compound they belong to.

Tested on: NCI-H196 SCLC complex tumor spheroid viability
Assay: Anticancer human tumor NCI-H196 cell line growth inhibition;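 further: spheroids exposed to compounds for 7 days before readout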;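 on viability, T/C: 100% = DMSO vehicle control wells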
Details: for viability, T/C: stronger effect = lower value
Outline: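 Single agents and combinations were tested on spheroids built from tumor cells plus HUVEC and hMSC, at half-log dilutions starting at or near clinical Cmax, else 10 microM; final DMSO 0.25% (v/v).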

[1] = curve of first compound, second compound 0.003 µM
[2] = second compound 0.003 µM, first compound 0.0316 µM
[3] = second compound 0.003 µM, first compound 0.1 µM
[4] = second compound 0.003 µM, first compound 0.316 µM
[5] = second compound 0.003 µM, first compound 1 µM
[6] = second compound 0.003 µM, first compound 3.16 µM
[7] = second compound 0.003 µM, first compound 10 µM
[8] = compound alone, run of 11/07/2019
[9] = curve of first compound, second compound 0.00949 µM
[10] = curve of first compound, second compound 0.03 µM
[11] = curve of first compound, second compound 0.0949 µM
[12] = curve of first compound, second compound 0.3 µM

SMILES: CC(C)n1c(=O)n(C)c2cnc3cc(F)c(-c4ccc(OCCCN5CCCCC5)nc4)cc3c21 + COc1cc2c(cc1O)CCNC21CSC2c3c(OC(C)=O)c(C)c4c(c3C(COC1=O)N1C(O)C3Cc5cc(C)c(OC)c(O)c5C(C21)N3C)OCO4
pIC50 (curve of first compound, second compound 30 pM): < 5.00
pIC50 (curve of first compound, second compound 94.9 pM): < 5.00
pIC50 (curve of first compound, second compound 0.0003 µM): < 5.00
pIC50 (curve of first compound, second compound 0.000949 µM): < 5.00
pIC50 [1]: > 7.50
viability, T/C (second compound 30 pM, first compound 0.0316 µM): 104%
viability, T/C (second compound 30 pM, first compound 0.1 µM): 106%
viability, T/C (second compound 30 pM, first compound 0.316 µM): 106%
viability, T/C (second compound 30 pM, first compound 1 µM): 104%
viability, T/C (second compound 30 pM, first compound 3.16 µM): 114%
viability, T/C (second compound 30 pM, first compound 10 µM): 107%
viability, T/C (second compound 94.9 pM, first compound 0.0316 µM): 106%
viability, T/C (second compound 94.9 pM, first compound 0.1 µM): 107%
viability, T/C (second compound 94.9 pM, first compound 0.316 µM): 105%
viability, T/C (second compound 94.9 pM, first compound 1 µM): 107%
viability, T/C (second compound 94.9 pM, first compound 3.16 µM): 123%
viability, T/C (second compound 94.9 pM, first compound 10 µM): 112%
viability, T/C (second compound 0.0003 µM, first compound 0.0316 µM): 103%
viability, T/C (second compound 0.0003 µM, first compound 0.1 µM): 112%
viability, T/C (second compound 0.0003 µM, first compound 0.316 µM): 111%
viability, T/C (second compound 0.0003 µM, first compound 1 µM): 112%
viability, T/C (second compound 0.0003 µM, first compound 3.16 µM): 116%
viability, T/C (second compound 0.0003 µM, first compound 10 µM): 104%
viability, T/C (second compound 0.000949 µM, first compound 0.0316 µM): 93.8%
viability, T/C (second compound 0.000949 µM, first compound 0.1 µM): 97.7%
viability, T/C (second compound 0.000949 µM, first compound 0.316 µM): 92.6%
viability, T/C (second compound 0.000949 µM, first compound 1 µM): 93.7%
viability, T/C (second compound 0.000949 µM, first compound 3.16 µM): 106%
viability, T/C (second compound 0.000949 µM, first compound 10 µM): 95.2%
viability, T/C [2]: 7%
viability, T/C [3]: 6.41%
viability, T/C [4]: 9.42%
viability, T/C [5]: 3.31%
viability, T/C [6]: 2.99%
viability, T/C [7]: 3.29%

pIC50 [8]: < 4.00
SMILES: Cn1nnc2c(C(N)=O)ncn2c1=O
viability, T/C (compound 1 µM): 95.3% [middle of 10 runs]
viability, T/C (compound 3.16 µM): 101% [middle of 10 runs]
viability, T/C (compound 10 µM): 104% [middle of 10 runs]
viability, T/C (compound 31.6 µM): 107% [middle of 10 runs]

SMILES: Cc1sc2c(c1C)C(c1ccc(Cl)cc1)=NC(CC(=O)Nc1ccc(O)cc1)c1nnc(C)n1-2 (centres undefined) + CC[C@@]1(O)C(=O)OCc2c1cc1n(c2=O)Cc2cc3c(CN(C)C)c(O)ccc3nc2-1
pIC50 [1]: 6.21
pIC50 [9]: 6.16
pIC50 [10]: 6.18
pIC50 [11]: 6.12
pIC50 [12]: 6.43
viability, T/C (second compound 0.003 µM, first compound 0.00949 µM): 98.8%
viability, T/C (second compound 0.003 µM, first compound 0.03 µM): 101%
viability, T/C (second compound 0.003 µM, first compound 0.0949 µM): 86.2%
viability, T/C (second compound 0.003 µM, first compound 0.3 µM): 70.2%
viability, T/C (second compound 0.003 µM, first compound 0.949 µM): 37.8%
viability, T/C (second compound 0.003 µM, first compound 3 µM): 19.2%
viability, T/C (second compound 0.00949 µM, first compound 0.00949 µM): 98.7%
viability, T/C (second compound 0.00949 µM, first compound 0.03 µM): 96.1%
viability, T/C (second compound 0.00949 µM, first compound 0.0949 µM): 86.8%
viability, T/C (second compound 0.00949 µM, first compound 0.3 µM): 76.6%
viability, T/C (second compound 0.00949 µM, first compound 0.949 µM): 39.1%
viability, T/C (second compound 0.00949 µM, first compound 3 µM): 23.7%
viability, T/C (second compound 0.03 µM, first compound 0.00949 µM): 96.1%
viability, T/C (second compound 0.03 µM, first compound 0.03 µM): 84%
viability, T/C (second compound 0.03 µM, first compound 0.0949 µM): 80.3%
viability, T/C (second compound 0.03 µM, first compound 0.3 µM): 64.7%
viability, T/C (second compound 0.03 µM, first compound 0.949 µM): 41.8%
viability, T/C (second compound 0.03 µM, first compound 3 µM): 29.9%
viability, T/C (second compound 0.0949 µM, first compound 0.00949 µM): 98%
viability, T/C (second compound 0.0949 µM, first compound 0.03 µM): 93.6%
viability, T/C (second compound 0.0949 µM, first compound 0.0949 µM): 88.1%
viability, T/C (second compound 0.0949 µM, first compound 0.3 µM): 67.4%
viability, T/C (second compound 0.0949 µM, first compound 0.949 µM): 46%
viability, T/C (second compound 0.0949 µM, first compound 3 µM): 32.3%
viability, T/C (second compound 0.3 µM, first compound 0.00949 µM): 92.3%
viability, T/C (second compound 0.3 µM, first compound 0.03 µM): 92.8%
viability, T/C (second compound 0.3 µM, first compound 0.0949 µM): 78.9%
viability, T/C (second compound 0.3 µM, first compound 0.3 µM): 49.8%
viability, T/C (second compound 0.3 µM, first compound 0.949 µM): 40.1%
viability, T/C (second compound 0.3 µM, first compound 3 µM): 24.4%

SMILES: [2H]c1nc(C)nc([2H])c1-c1cc(NC[C@@H](C)c2cccc3c(C(=O)NC)ccnc23)ncn1 + CC[C@@]1(O)C(=O)OCc2c1cc1n(c2=O)Cc2cc3c(CN(C)C)c(O)ccc3nc2-1
pIC50 [1]: < 5.00
pIC50 [9]: < 5.00
pIC50 [10]: < 5.00
pIC50 [11]: < 5.00
pIC50 [12]: < 5.00
viability, T/C [2]: 103%
viability, T/C [3]: 104%
viability, T/C [4]: 92.5%
viability, T/C [5]: 97.2%
viability, T/C [6]: 106%
viability, T/C [7]: 100%
viability, T/C (second compound 0.00949 µM, first compound 0.0316 µM): 100%
viability, T/C (second compound 0.00949 µM, first compound 0.1 µM): 96.5%
viability, T/C (second compound 0.00949 µM, first compound 0.316 µM): 91.8%
viability, T/C (second compound 0.00949 µM, first compound 1 µM): 95.5%
viability, T/C (second compound 0.00949 µM, first compound 3.16 µM): 99.7%
viability, T/C (second compound 0.00949 µM, first compound 10 µM): 100%
viability, T/C (second compound 0.03 µM, first compound 0.0316 µM): 96.8%
viability, T/C (second compound 0.03 µM, first compound 0.1 µM): 102%
viability, T/C (second compound 0.03 µM, first compound 0.316 µM): 95.4%
viability, T/C (second compound 0.03 µM, first compound 1 µM): 93.4%
viability, T/C (second compound 0.03 µM, first compound 3.16 µM): 95.5%
viability, T/C (second compound 0.03 µM, first compound 10 µM): 94.6%
viability, T/C (second compound 0.0949 µM, first compound 0.0316 µM): 99.4%
viability, T/C (second compound 0.0949 µM, first compound 0.1 µM): 102%
viability, T/C (second compound 0.0949 µM, first compound 0.316 µM): 107%
viability, T/C (second compound 0.0949 µM, first compound 1 µM): 102%
viability, T/C (second compound 0.0949 µM, first compound 3.16 µM): 100%
viability, T/C (second compound 0.0949 µM, first compound 10 µM): 102%
viability, T/C (second compound 0.3 µM, first compound 0.0316 µM): 109%
viability, T/C (second compound 0.3 µM, first compound 0.1 µM): 103%
viability, T/C (second compound 0.3 µM, first compound 0.316 µM): 94.8%
viability, T/C (second compound 0.3 µM, first compound 1 µM): 105%
viability, T/C (second compound 0.3 µM, first compound 3.16 µM): 104%
viability, T/C (second compound 0.3 µM, first compound 10 µM): 100%

pIC50 [8]: < 6.52
pIC50 (compound alone, run of 12/16/2019): < 6.52
SMILES: CC[C@@]1(O)C(=O)OCc2c1cc1n(c2=O)Cc2cc3c(CN(C)C)c(O)ccc3nc2-1
viability, T/C (compound 0.003 µM): 101% [middle of 10 runs]
viability, T/C (compound 0.00949 µM): 99.5% [middle of 10 runs]
viability, T/C (compound 0.03 µM): 95.5% [middle of 10 runs]
viability, T/C (compound 0.0949 µM): 102% [middle of 10 runs]
viability, T/C (compound 0.3 µM): 105% [middle of 10 runs]

SMILES: [2H]c1nc(C)nc([2H])c1-c1cc(NC[C@@H](C)c2cccc3c(C(=O)NC)ccnc23)ncn1
viability, T/C (compound 0.0316 µM): 104% and 105% and 99.6%
viability, T/C (compound 0.1 µM): 102% and 99.5% and 104%
viability, T/C (compound 0.316 µM): 98.1% and 106% and 96.8%
viability, T/C (compound 1 µM): 99.2% and 106% and 97.2%
viability, T/C (compound 3.16 µM): 103% and 99.3% and 102%
viability, T/C (compound 10 µM): 103% and 107% and 104%
pIC50 (curve of compound): < 5.00
